How the values were obtained:
[1] = biological target: T1, CK1α (Homo sapiens, UniProt P48729); test: CK1α NanoBit Assay (HiBiT-tagged CSNK1A1, HEK293 clonal lines); type: cell-based; settings: HEK293 HiBiT-CSNK1A1/LgBiT cells, 24 h incubation
T1 construct: HEK293 clonal lines with CRISPR KI HiBiT tag on CSNK1A1
Protocol: HEK293 clonal lines with CRISPR KI HiBiT tag on CSNK1A1 and stably expressing LgBiT protein were obtained from Promega (Madison, WI). […] Cells were incubated at 37° C., 5% CO2 for 24 hours and then signal was read on a Pherastar FSX using “LUM plus” optic module.
Data analysis was performed in Scinamic (Scinamic, Cambridge, MA). Luminescence response (R) was calculated by the formula: response=100*(S−N)/(P−N) where S is the signal of the well, N and P the mean negative and positive control values respectively of the same plate.
DC50 data are reported in Table 2 for compounds in Table 1. In Table 2 below, According to the code, A represents a DC50 value of ≤0.1 μM, B represents a DC50 value>0.1 μM and ≤1 μM, C represents an DC50 value>1 μM.

[2] = biological target: CRBN/DDB1 (Homo sapiens, UniProt Q96SW2); test: HTRF binding assay (displacement of Cy5-thalidomide probe from CRBN/DDB1); settings: CRBN/DDB1 2.5 nM, Cy5-Thalidomide 100 nM, 30 min; geometric mean; read-out: HTRF_Thali_Disp_DR_geo_IC50
Text: Binding of test compounds to CRBN/DDB1 was monitored in an HTRF assay using 1-[5-({2-[2-(2-{[2-(2,6-dioxopiperidin-3-yl)-1,3-dioxo-2,3-dihydro-1H-isoindol-4-yl]oxy}acetamido)ethoxy]ethyl}carbamoyl)pentyl]-3,3-dimethyl-2-[(1E,3E)-5-[(2E)-1,3,3-trimethyl-5-sulfo-2,3-dihydro-1H-indol-2-ylidene]penta-1,3-dien-1-yl]-3H-indol-1-ium-5-sulfonate as a fluorescent probe. In this assay, compounds displace the fluorescently labeled thalidomide-based probe bound to CRBN and fluorescence is monitored with increasing compound concentration. Assays were conducted in Greiner white 384 well HiBase plates (Cat. No 784075-25) in 10 μL total volume. A one pot detection solution of CRBN/DDB1 (2.5 nM), anti-His Terbium Cryptate Gold (1×, PerkinElmer Cat. #: 61HI2TLB), and Cy5-Thalidomide (100 nM, Tenova Cat.: T52461) was prepared in 20 mM HEPES, 20 mM NaCl, 0.2 mM TCEP, 0.2 mM EDTA, and 0.005% Tween20 was dispensed to each assay plate. Test compounds were stored in dry, ambient temperatures at 10 mM. A 10-point, 1:3 dilution series was prepared from 10 mM stock concentrations in Echo-compatible LDV plates. 10 nL of each compound dilution series was dispensed into assays wells using an Echo 650 (Labcyte inc. USA). 10 nL of 10 mM lenalidomide (Selleckchem Cat no. S1029) was transferred into the active-control wells for the assay and 10 nL of DMSO was transferred into the negative control wells. The assay was then allowed to incubate for 30 min at ambient temperature after transferring the test compounds. Plate measurements were taken on a Pherastar FSX (BMG Labtech, Germany) using the HTRF Red filter (Ex. 337 nm, em1: 620 nm, em2: 665 nm) (Flashes: 50, Integration time: 60-400 μs, Z-height: 10 mm, Ratio-multiplier: 10,000). Analysis, HTRF ratio and IC50 values were derived using KNIME analytics (KNIME Zurich) transformation and fitting within Collaborative Drug Discovery (Collaborative Drug Discovery USA) using a 4-parameter logistic fit. HTRF ratio calculation was performed using the following formula: […]
where Y represents the HTRF ratio response (as defined previously), X the compound concentration in μM, Ymin the minimum response plateau, Ymax the maximum response plateau, IC50 the concentration of agonist that gives a response half way between Ymin and Ymax and HillSlope the steepness of the family of curves. No fitting model constraints was applied on Ymin, or Ymax whilst IC50>0 and −0.5>HillSlope>−3
Ki values were derived from the geometric mean of the IC50 values using the Cheng-Prusoff transformation:
where [L] represents the concentration of fluorescent probe in μM, Kd the affinity (binding constant) of the fluorescent probe in units of μM and IC50 the concentration of agonist that gives a response halfway between Ymin and Ymax (as described in 1.2.1)
Analysis and IC50 values were derived using KNIME analytics (KNIME, Zurich) transformation and fitting within Collaborative Drug Discovery (Collaborative Drug Discovery, USA) as described in 1.2.1. Ki values were derived from the geometric mean of the IC50 values using the Cheng-Prusoff transformation as described in 2.2.2. Data was visualized in GraphPad Prism 8.1.2 (GraphPad, USA) and reported as mean and standard deviation. Microsoft Office Excel 2012 (Redmond, WA) was used for calculation of mean and standard deviation.
IC50 data are reported in Table 3 for compounds in Table 1. In Table 3 below, According to the code, A represents a IC50 value of ≤0.1 μM, B represents a IC50 value>0.1 μM and ≤1 μM, C represents an IC50 value>1 μM.

T1 sequence (P48729 whole entry): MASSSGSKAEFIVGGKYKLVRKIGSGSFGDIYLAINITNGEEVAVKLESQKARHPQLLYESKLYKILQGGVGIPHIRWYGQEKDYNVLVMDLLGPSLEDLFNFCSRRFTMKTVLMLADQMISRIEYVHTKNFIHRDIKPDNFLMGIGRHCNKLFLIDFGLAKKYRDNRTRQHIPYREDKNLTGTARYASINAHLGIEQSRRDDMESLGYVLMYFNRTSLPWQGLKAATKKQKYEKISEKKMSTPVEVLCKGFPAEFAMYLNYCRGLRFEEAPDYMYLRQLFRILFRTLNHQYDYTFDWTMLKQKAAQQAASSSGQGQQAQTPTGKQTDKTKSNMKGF
T1 sequence (Q96SW2 whole entry, further chain): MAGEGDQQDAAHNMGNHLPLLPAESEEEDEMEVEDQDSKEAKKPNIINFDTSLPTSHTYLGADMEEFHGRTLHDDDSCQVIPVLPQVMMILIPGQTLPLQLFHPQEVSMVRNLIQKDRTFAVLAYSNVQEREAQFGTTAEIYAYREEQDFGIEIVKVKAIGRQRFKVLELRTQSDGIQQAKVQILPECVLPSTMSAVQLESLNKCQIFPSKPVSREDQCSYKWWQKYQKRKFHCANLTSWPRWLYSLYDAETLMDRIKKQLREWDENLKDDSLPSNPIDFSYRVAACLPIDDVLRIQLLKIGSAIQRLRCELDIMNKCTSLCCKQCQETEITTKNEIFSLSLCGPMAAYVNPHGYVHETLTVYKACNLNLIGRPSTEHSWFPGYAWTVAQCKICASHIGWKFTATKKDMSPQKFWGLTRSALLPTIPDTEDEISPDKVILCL
T1 sequence (Q16531 2-1140 partner limits assumed): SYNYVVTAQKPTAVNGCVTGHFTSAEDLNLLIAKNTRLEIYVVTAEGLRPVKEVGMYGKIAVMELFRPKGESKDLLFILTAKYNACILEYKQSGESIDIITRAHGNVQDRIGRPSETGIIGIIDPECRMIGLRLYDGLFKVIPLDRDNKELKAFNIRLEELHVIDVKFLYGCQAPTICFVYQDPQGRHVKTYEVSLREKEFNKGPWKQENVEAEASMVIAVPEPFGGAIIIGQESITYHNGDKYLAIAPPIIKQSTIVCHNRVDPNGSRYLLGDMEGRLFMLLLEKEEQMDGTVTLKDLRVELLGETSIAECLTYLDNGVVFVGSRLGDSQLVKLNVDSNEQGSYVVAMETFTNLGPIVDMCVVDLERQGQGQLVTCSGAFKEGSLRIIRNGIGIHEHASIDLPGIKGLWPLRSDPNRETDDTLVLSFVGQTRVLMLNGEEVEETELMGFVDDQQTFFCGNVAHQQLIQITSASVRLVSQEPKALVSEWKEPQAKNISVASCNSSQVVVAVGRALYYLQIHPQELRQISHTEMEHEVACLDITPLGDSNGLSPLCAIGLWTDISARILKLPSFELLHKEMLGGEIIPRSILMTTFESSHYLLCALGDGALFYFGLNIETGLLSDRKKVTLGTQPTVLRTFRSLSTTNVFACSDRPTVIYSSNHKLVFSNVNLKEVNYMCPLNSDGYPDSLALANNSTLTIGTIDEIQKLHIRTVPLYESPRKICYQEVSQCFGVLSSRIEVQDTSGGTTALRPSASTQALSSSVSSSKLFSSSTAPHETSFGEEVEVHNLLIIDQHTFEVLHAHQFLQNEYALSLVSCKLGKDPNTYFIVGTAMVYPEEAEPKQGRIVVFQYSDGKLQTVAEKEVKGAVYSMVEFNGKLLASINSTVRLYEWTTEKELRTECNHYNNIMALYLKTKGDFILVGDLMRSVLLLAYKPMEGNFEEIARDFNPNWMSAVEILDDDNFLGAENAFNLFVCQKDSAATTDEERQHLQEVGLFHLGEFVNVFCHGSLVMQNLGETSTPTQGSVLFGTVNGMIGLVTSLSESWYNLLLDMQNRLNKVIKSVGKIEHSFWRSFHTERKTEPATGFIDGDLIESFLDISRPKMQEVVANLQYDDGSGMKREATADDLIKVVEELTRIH
Sequence of CRBN/DDB1 (Q96SW2 whole entry, species assumed): as the sequence (Q96SW2 whole entry, further chain) above
Sequence of CRBN/DDB1 (Q16531 whole entry partner, species assumed): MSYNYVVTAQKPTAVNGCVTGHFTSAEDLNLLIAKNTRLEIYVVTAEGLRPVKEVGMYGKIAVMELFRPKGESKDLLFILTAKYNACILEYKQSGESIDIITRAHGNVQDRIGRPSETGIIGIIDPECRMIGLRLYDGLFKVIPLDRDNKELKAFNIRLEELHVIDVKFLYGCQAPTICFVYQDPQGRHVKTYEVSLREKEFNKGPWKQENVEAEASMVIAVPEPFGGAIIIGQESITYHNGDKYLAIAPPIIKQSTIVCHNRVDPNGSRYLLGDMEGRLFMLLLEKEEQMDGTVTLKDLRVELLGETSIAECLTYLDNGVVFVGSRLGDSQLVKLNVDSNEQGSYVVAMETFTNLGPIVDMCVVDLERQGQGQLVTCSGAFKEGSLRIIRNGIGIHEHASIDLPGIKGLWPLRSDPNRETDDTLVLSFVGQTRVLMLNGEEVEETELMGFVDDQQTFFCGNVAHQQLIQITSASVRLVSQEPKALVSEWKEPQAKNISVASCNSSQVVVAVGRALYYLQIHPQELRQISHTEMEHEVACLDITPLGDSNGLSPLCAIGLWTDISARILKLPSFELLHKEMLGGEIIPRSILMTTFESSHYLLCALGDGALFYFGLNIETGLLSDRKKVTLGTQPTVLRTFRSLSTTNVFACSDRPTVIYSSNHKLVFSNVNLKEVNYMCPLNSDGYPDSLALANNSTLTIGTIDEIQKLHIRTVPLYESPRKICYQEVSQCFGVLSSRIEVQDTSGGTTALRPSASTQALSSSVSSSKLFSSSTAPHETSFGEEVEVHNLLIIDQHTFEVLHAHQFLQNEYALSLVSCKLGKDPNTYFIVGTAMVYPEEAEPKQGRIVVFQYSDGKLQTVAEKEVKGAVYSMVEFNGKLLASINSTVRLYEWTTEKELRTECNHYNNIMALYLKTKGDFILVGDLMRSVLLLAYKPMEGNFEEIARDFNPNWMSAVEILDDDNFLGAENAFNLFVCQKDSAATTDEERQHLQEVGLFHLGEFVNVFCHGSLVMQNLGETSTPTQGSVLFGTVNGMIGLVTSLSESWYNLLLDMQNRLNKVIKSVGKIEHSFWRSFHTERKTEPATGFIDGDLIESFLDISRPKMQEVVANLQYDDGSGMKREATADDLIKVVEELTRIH

SMILES	DC50 [1] [µM]	IC50 [2] [nM]
O=C1CC[C@@H](N2Cc3cc(NC(=O)N4c5ccccc5C[C@H]4C(F)(F)F)ccc3C2=O)C(=O)N1 (single isomer, unassigned) [Compound 359]	< 0.1	> 1000
O=C1CC[C@H](N2Cc3cc(NC(=O)N4c5ccccc5C[C@@H]4C(F)(F)F)ccc3C2=O)C(=O)N1 (single isomer, unassigned) [Compound 362]	< 0.1	100 to 1000
CC1(c2ccccc2)CN(C(=O)Nc2ccc3c(c2)CN(C2CCC(=O)NC2=O)C3=O)C1 (stereo not shown) [Compound 109, N-(2-(2,6-dioxopiperidin-3-yl)-1-oxoisoindolin-5-yl)-3-methyl-3-phenylazetidine-1-carboxamide]	0.1 to 1	100 to 1000
O=C1CCC(N2Cc3cc(NC(=O)N4CC(c5ccccc5)C4)ccc3C2=O)C(=O)N1 (stereo not shown) [Compound 111, N-(2-(2,6-dioxopiperidin-3-yl)-1-oxoisoindolin-5-yl)-3-phenylazetidine-1-carboxamide]	0.1 to 1	100 to 1000
CC1c2ccccc2N(C(=O)Nc2ccc3c(c2)CN(C2CCC(=O)NC2=O)C3=O)C1C (stereo not shown) [Compound 123, N-(2-(2,6-dioxopiperidin-3-yl)-1-oxoisoindolin-5-yl)-2,3-dimethylindoline-1-carboxamide]	< 0.1	100 to 1000
O=C1CCC(N2Cc3cc(NC(=O)N4CC5(CCCC5)c5ccccc54)ccc3C2=O)C(=O)N1 (stereo not shown) [Compound 192, N-(2-(2,6-dioxopiperidin-3-yl)-1-oxoisoindolin-5-yl)spiro[cyclopentane-1,3′-indoline]-1′-carboxamide]	< 0.1	100 to 1000
CC(C)C1CN(C(=O)Nc2ccc3c(c2)CN(C2CCC(=O)NC2=O)C3=O)c2ccccc21 (stereo not shown) [Compound 203, N-(2-(2,6-dioxopiperidin-3-yl)-1-oxoisoindolin-5-yl)-3-isopropylindoline-1-carboxamide]	< 0.1	100 to 1000
CC1CCCN(C(=O)Nc2ccc3c(c2)CN(C2CCC(=O)NC2=O)C3=O)C1 (stereo not shown) [Compound 280]	0.1 to 1	
CC1CCN(C(=O)Nc2ccc3c(c2)CN(C2CCC(=O)NC2=O)C3=O)CC1 (stereo not shown) [Compound 281]	0.1 to 1	
CC1CCCCN1C(=O)Nc1ccc2c(c1)CN(C1CCC(=O)NC1=O)C2=O (stereo not shown) [Compound 282]	0.1 to 1	
O=C1CCC(N2Cc3cc(NC(=O)N4c5cccc(C(F)(F)F)c5CC45COC5)ccc3C2=O)C(=O)N1 (stereo not shown) [Compound 296, N-(2-(2,6-dioxopiperidin-3-yl)-1-oxoisoindolin-5-yl)-4-(trifluoromethyl)spiro[indoline-2,3′-oxetane]-1-carboxamide]	< 0.1	
C[C@@H]1Cc2cc(F)ccc2N1C(=O)Nc1ccc2c(c1)CN(C1CCC(=O)NC1=O)C2=O (stereo partly drawn) [Compound 363, (2R)—N-(2-(2,6-dioxopiperidin-3-yl)-1-oxoisoindolin-5-yl)-5-fluoro-2-methylindoline-1-carboxamide]	< 0.1	

Results, then the compound that gave them:

DC50 [1] [µM]	IC50 [2] [nM]	SMILES
< 0.1	100 to 1000	O=C1CCC(N2Cc3cc(NC(=O)N4CCc5ccncc54)ccc3C2=O)C(=O)N1 (stereo not shown) [Compound 105, N-(2-(2,6-dioxopiperidin-3-yl)-1-oxoisoindolin-5-yl)-2,3-dihydro-1H-pyrrolo[2,3-c]pyridine-1-carboxamide]
0.1 to 1	> 1000	O=C1CCC(N2Cc3cc(NC(=O)N4CCc5cccnc54)ccc3C2=O)C(=O)N1 (stereo not shown) [Compound 112, N-(2-(2,6-dioxopiperidin-3-yl)-1-oxoisoindolin-5-yl)-2,3-dihydro-1H-pyrrolo[2,3-b]pyridine-1-carboxamide]
< 0.1	100 to 1000	N#Cc1ccc2c(c1)N(C(=O)Nc1ccc3c(c1)CN(C1CCC(=O)NC1=O)C3=O)CC2 (stereo not shown) [Compound 115, 6-cyano-N-(2-(2,6-dioxopiperidin-3-yl)-1-oxoisoindolin-5-yl)indoline-1-carboxamide]
0.1 to 1	100 to 1000	O=C1CCC(N2Cc3cc(NC(=O)N4CCc5cccc(C(F)(F)F)c54)ccc3C2=O)C(=O)N1 (stereo not shown) [Compound 117, N-(2-(2,6-dioxopiperidin-3-yl)-1-oxoisoindolin-5-yl)-7-(trifluoromethyl)indoline-1-carboxamide]
< 0.1	100 to 1000	CC1(C)Cc2ccccc2N1C(=O)Nc1ccc2c(c1)CN(C1CCC(=O)NC1=O)C2=O (stereo not shown) [Compound 132]
> 1	100 to 1000	N#Cc1cccc2c1N(C(=O)Nc1ccc3c(c1)CN(C1CCC(=O)NC1=O)C3=O)CC2 (stereo not shown) [Compound 147, 7-cyano-N-(2-(2,6-dioxopiperidin-3-yl)-1-oxoisoindolin-5-yl)indoline-1-carboxamide]
< 0.1	100 to 1000	O=C1CCC(N2Cc3cc(NC(=O)N4CCc5cccc(Cl)c54)ccc3C2=O)C(=O)N1 (stereo not shown) [Compound 152, 7-chloro-N-(2-(2,6-dioxopiperidin-3-yl)-1-oxoisoindolin-5-yl) indoline-1-carboxamide]
< 0.1	100 to 1000	CCc1cccc2c1N(C(=O)Nc1ccc3c(c1)CN(C1CCC(=O)NC1=O)C3=O)CC2 (stereo not shown) [Compound 162, N-(2-(2,6-dioxopiperidin-3-yl)-1-oxoisoindolin-5-yl)-7-ethylindoline-1-carboxamide]
< 0.1	100 to 1000	O=C1CCC(N2Cc3cc(NC(=O)N4CCc5cccc(F)c54)ccc3C2=O)C(=O)N1 (stereo not shown) [Compound 163, N-(2-(2,6-dioxopiperidin-3-yl)-1-oxoisoindolin-5-yl)-7-fluoroindoline-1-carboxamide]
< 0.1	100 to 1000	Cc1cc2c(cc1C)N(C(=O)Nc1ccc3c(c1)CN(C1CCC(=O)NC1=O)C3=O)CC2 (stereo not shown) [Compound 171, N-(2-(2,6-dioxopiperidin-3-yl)-1-oxoisoindolin-5-yl)-5,6-dimethylindoline-1-carboxamide]
< 0.1	100 to 1000	O=C1CCC(N2Cc3cc(NC(=O)N4CC5(CCC5)c5ccccc54)ccc3C2=O)C(=O)N1 (stereo not shown) [Compound 188]
< 0.1	100 to 1000	CC1CN(C(=O)Nc2ccc3c(c2)CN(C2CCC(=O)NC2=O)C3=O)Cc2ccccc21 (stereo not shown) [Compound 191, N-(2-(2,6-dioxopiperidin-3-yl)-1-oxoisoindolin-5-yl)-4-methyl-3,4-dihydroisoquinoline-2(1H)-carboxamide]
< 0.1	> 1000	O=C1CCC(N2Cc3cc(NC(=O)N4CCc5cc(Cl)ccc54)ccc3C2=O)C(=O)N1 (stereo not shown) [Compound 197, 5-chloro-N-(2-(2,6-dioxopiperidin-3-yl)-1-oxoisoindolin-5-yl)indoline-1-carboxamide]
< 0.1	100 to 1000	Cc1cc(C)c2c(c1)N(C(=O)Nc1ccc3c(c1)CN(C1CCC(=O)NC1=O)C3=O)CC2 (stereo not shown) [Compound 209]
< 0.1	100 to 1000	CC1c2ccccc2CCN1C(=O)Nc1ccc2c(c1)CN(C1CCC(=O)NC1=O)C2=O (stereo not shown) [Compound 216, N-(2-(2,6-dioxopiperidin-3-yl)-1-oxoisoindolin-5-yl)-1-methyl-3,4-dihydroisoquinoline-2(1H)-carboxamide]

Source: patent US20250171420A1 (Monte Rosa Therapeutics, Inc., priority 2022, published 2025)
